Columns and labels:
Type in all cases: in vivo
[1] = test system: redroot pigweed (Amaranthus retroflexus, AMARE); test: Pre-emerge test, greenhouse herbicide activity screening; conditions: pre-emerge, 14 days after application, scale 0-100
Summary of the method: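 Plants grown in 10 cm pots of sandy loam mix received acetone-dissolved compounds through a moving flat-fan nozzle. Doses ranged from 15 to 1000 g ai/ha. Pre-emerge pots were seeded one day earlier, post-emerge pots 8–21 days earlier. Fourteen days on, each pot was graded 0–100 for damage.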

[2] = test system: barnyardgrass (Echinochloa crus-galli, ECHCG); test: as above; conditions: pre-emerge, 14 days after application, scale 0-100
Summary of the method: (§1)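 Visual ratings on a 0-100 scale (0 no damage, 100 all plants dead) were taken at 14 days after treatment. Rates of 15-1000 g ai/ha in acetone, 187 l/ha, were sprayed onto soil one day after planting (pre-emerge) or onto 2-3 leaf plants with 0.25% v/v surfactant (post-emerge).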

[3] = test system: green foxtail (Setaria viridis, SETVI); test: as above; conditions: pre-emerge, 14 days after application, scale 0-100
Summary of the method: as §1

[4] = test system: ivyleaf morningglory (Ipomoea hederacea, IPOHE); test: as above; conditions: pre-emerge, 14 days after application, scale 0-100
Summary of the method: as §1

[5] = test system: johnsongrass (Sorghum halepense, SORHA); test: as above; conditions: pre-emerge, 14 days after application, scale 0-100
Summary of the method: as §1

[6] = test system: lambsquarters (Chenopodium album, CHEAL); test: as above; conditions: pre-emerge, 14 days after application, scale 0-100
Summary of the method: as §1

[7] = test system: large crabgrass (Digitaria sanguinalis, DIGSA); test: as above; conditions: pre-emerge, 14 days after application, scale 0-100
Summary of the method: as §1

[8] = test system: sicklepod (Cassia obtusifolia, CASOB); test: as above; conditions: pre-emerge, 14 days after application, scale 0-100
Summary of the method: as §1

[9] = test system: velvetleaf (Abutilon theophrasti, ABUTH); test: as above; conditions: pre-emerge, 14 days after application, scale 0-100
Summary of the method: as §1

[10] = test system: field corn (Zea mays L., var. Dekalb 535, CORN); test: Pre-emerge test, crop safety; conditions: pre-emerge, 14 days after application, scale 0-100
Summary of the method: (§2)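 Sandy loam pots; pre-emerge: sown 1 d pre-spray, surface-watered after, then bottom-watered. Post-emerge: sown 8–21 d before, 2–3 leaf stage, + 0.25% v/v NIS, bottom-watered. Acetone, 187 l/ha track spray, 15–1000 g ai/ha. 0–100 injury score, day 14.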

[11] = test system: upland rice (Oryza sp., var. Tebonnet, RICE); test: Pre-emerge test, crop safety; conditions: pre-emerge, 14 days after application, scale 0-100
Summary of the method: as §2

[12] = test system: barnyardgrass (Echinochloa crus-galli, ECHCG); test: Post-emerge test, greenhouse herbicide activity screening; conditions: post-emerge, 14 days after application, rating scale 0-100
Summary of the method: (§3)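 Applied at 15–1000 g ai/ha from acetone in 187 l/ha spray volume. Post-emergence applications included 0.25% v/v non-ionic surfactant and reached plants sown 8–21 days before. Pre-emergence applications were incorporated by surface watering. Efficacy or crop damage was rated on a 0–100 scale after 14 days.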

[13] = test system: green foxtail (Setaria viridis, SETVI); test: as above; conditions: post-emerge, 14 days after application, rating scale 0-100
Summary of the method: as §3

[14] = test system: ivyleaf morningglory (Ipomoea hederacea, IPOHE); test: as above; conditions: post-emerge, 14 days after application, rating scale 0-100
Summary of the method: as §3

[15] = test system: johnsongrass (Sorghum halepense, SORHA); test: as above; conditions: post-emerge, 14 days after application, rating scale 0-100
Summary of the method: as §3

[16] = test system: lambsquarters (Chenopodium album, CHEAL); test: as above; conditions: post-emerge, 14 days after application, rating scale 0-100
Summary of the method: as §3

[17] = test system: large crabgrass (Digitaria sanguinalis, DIGSA); test: as above; conditions: post-emerge, 14 days after application, rating scale 0-100
Summary of the method: as §3

[18] = test system: redroot pigweed (Amaranthus retroflexus, AMARE); test: as above; conditions: post-emerge, 14 days after application, rating scale 0-100
Summary of the method: as §3

[19] = test system: sicklepod (Cassia obtusifolia, CASOB); test: as above; conditions: post-emerge, 14 days after application, rating scale 0-100
Summary of the method: as §3

[20] = test system: velvetleaf (Abutilon theophrasti, ABUTH); test: as above; conditions: post-emerge, 14 days after application, rating scale 0-100
Summary of the method: as §3

[21] = test system: field corn (Zea mays L., var. Dekalb 535, CORN); test: Post-emerge test, crop safety; conditions: post-emerge, 14 days after application, rating scale 0-100
Summary of the method: as §1

[22] = test system: upland rice (Oryza sp., var. Tebonnet, RICE); test: Post-emerge test, crop safety; conditions: post-emerge, 14 days after application, rating scale 0-100
Summary of the method: as §1

COc1c(Cl)cc(F)c(-n2c(=O)cc(C(F)(F)F)n(C)c2=O)c1NC(=O)C=Cc1ccccc1F [2-125]
20: phytotoxicity rating SORHA ([5]; 63 g ai/ha) | ECHCG phytotoxicity rating ([12]; 63 g ai/ha) | DIGSA phytotoxicity rating ([17]; 63 g ai/ha) | CORN phytotoxicity rating (crop damage) ([21]; 250 g ai/ha)
10: phytotoxicity rating ECHCG ([2]; 63 g ai/ha) | phytotoxicity rating CORN (crop damage) ([10]; 250 g ai/ha) | CORN phytotoxicity rating (crop damage) ([21]; 63 g ai/ha)
0: phytotoxicity rating IPOHE ([4]; 63 g ai/ha) | phytotoxicity rating CORN (crop damage) ([10]; 63 g ai/ha) | phytotoxicity rating RICE (crop damage) ([11]; 63 g ai/ha)
60: SETVI phytotoxicity rating ([13]; 250 g ai/ha)
100: phytotoxicity rating AMARE ([1]; 63 g ai/ha) | phytotoxicity rating AMARE ([1]; 250 g ai/ha) | phytotoxicity rating IPOHE ([4]; 250 g ai/ha) | phytotoxicity rating CHEAL ([6]; 63 g ai/ha) | phytotoxicity rating CHEAL ([6]; 250 g ai/ha) | phytotoxicity rating ABUTH ([9]; 63 g ai/ha) | phytotoxicity rating ABUTH ([9]; 250 g ai/ha) | IPOHE phytotoxicity rating ([14]; 63 g ai/ha) | IPOHE phytotoxicity rating ([14]; 250 g ai/ha) | CHEAL phytotoxicity rating ([16]; 63 g ai/ha) | CHEAL phytotoxicity rating ([16]; 250 g ai/ha) | AMARE phytotoxicity rating ([18]; 63 g ai/ha) | AMARE phytotoxicity rating ([18]; 250 g ai/ha) | CASOB phytotoxicity rating ([19]; 250 g ai/ha) | ABUTH phytotoxicity rating ([20]; 63 g ai/ha) | ABUTH phytotoxicity rating ([20]; 250 g ai/ha)
70: phytotoxicity rating CASOB ([8]; 250 g ai/ha) | RICE phytotoxicity rating (crop damage) ([22]; 250 g ai/ha)
45: phytotoxicity rating RICE (crop damage) ([11]; 250 g ai/ha)
40: ECHCG phytotoxicity rating ([12]; 250 g ai/ha) | SETVI phytotoxicity rating ([13]; 63 g ai/ha) | SORHA phytotoxicity rating ([15]; 250 g ai/ha) | DIGSA phytotoxicity rating ([17]; 250 g ai/ha) | RICE phytotoxicity rating (crop damage) ([22]; 63 g ai/ha)
30: phytotoxicity rating DIGSA ([7]; 63 g ai/ha) | phytotoxicity rating CASOB ([8]; 63 g ai/ha) | SORHA phytotoxicity rating ([15]; 63 g ai/ha)
50: phytotoxicity rating ECHCG ([2]; 250 g ai/ha) | phytotoxicity rating SETVI ([3]; 63 g ai/ha) | phytotoxicity rating SORHA ([5]; 250 g ai/ha)
90: phytotoxicity rating SETVI ([3]; 250 g ai/ha) | phytotoxicity rating DIGSA ([7]; 250 g ai/ha) | CASOB phytotoxicity rating ([19]; 63 g ai/ha)

COc1c(Cl)cc(F)c(-n2c(=O)cc(C(F)(F)F)n(C)c2=O)c1NC(=O)C=Cc1cccc(Cl)c1 [2-134]
60: phytotoxicity rating ABUTH ([9]; 63 g ai/ha) | SETVI phytotoxicity rating ([13]; 250 g ai/ha)
50: RICE phytotoxicity rating (crop damage) ([22]; 63 g ai/ha)
100: phytotoxicity rating AMARE ([1]; 63 g ai/ha) | phytotoxicity rating AMARE ([1]; 250 g ai/ha) | phytotoxicity rating CHEAL ([6]; 63 g ai/ha) | phytotoxicity rating CHEAL ([6]; 250 g ai/ha) | IPOHE phytotoxicity rating ([14]; 63 g ai/ha) | IPOHE phytotoxicity rating ([14]; 250 g ai/ha) | CHEAL phytotoxicity rating ([16]; 63 g ai/ha) | CHEAL phytotoxicity rating ([16]; 250 g ai/ha) | AMARE phytotoxicity rating ([18]; 63 g ai/ha) | AMARE phytotoxicity rating ([18]; 250 g ai/ha) | CASOB phytotoxicity rating ([19]; 250 g ai/ha) | ABUTH phytotoxicity rating ([20]; 63 g ai/ha) | ABUTH phytotoxicity rating ([20]; 250 g ai/ha)
20: phytotoxicity rating IPOHE ([4]; 63 g ai/ha) | phytotoxicity rating DIGSA ([7]; 63 g ai/ha) | phytotoxicity rating RICE (crop damage) ([11]; 250 g ai/ha) | SETVI phytotoxicity rating ([13]; 63 g ai/ha) | CORN phytotoxicity rating (crop damage) ([21]; 250 g ai/ha)
80: phytotoxicity rating SETVI ([3]; 250 g ai/ha) | phytotoxicity rating ABUTH ([9]; 250 g ai/ha) | RICE phytotoxicity rating (crop damage) ([22]; 250 g ai/ha)
35: phytotoxicity rating SETVI ([3]; 63 g ai/ha)
30: phytotoxicity rating ECHCG ([2]; 250 g ai/ha) | phytotoxicity rating IPOHE ([4]; 250 g ai/ha) | phytotoxicity rating SORHA ([5]; 250 g ai/ha) | phytotoxicity rating CASOB ([8]; 250 g ai/ha) | ECHCG phytotoxicity rating ([12]; 250 g ai/ha) | SORHA phytotoxicity rating ([15]; 250 g ai/ha) | DIGSA phytotoxicity rating ([17]; 250 g ai/ha)
0: phytotoxicity rating ECHCG ([2]; 63 g ai/ha) | phytotoxicity rating SORHA ([5]; 63 g ai/ha) | phytotoxicity rating CORN (crop damage) ([10]; 63 g ai/ha) | phytotoxicity rating CORN (crop damage) ([10]; 250 g ai/ha) | DIGSA phytotoxicity rating ([17]; 63 g ai/ha)
10: phytotoxicity rating CASOB ([8]; 63 g ai/ha) | phytotoxicity rating RICE (crop damage) ([11]; 63 g ai/ha) | ECHCG phytotoxicity rating ([12]; 63 g ai/ha) | SORHA phytotoxicity rating ([15]; 63 g ai/ha) | CORN phytotoxicity rating (crop damage) ([21]; 63 g ai/ha)
90: phytotoxicity rating DIGSA ([7]; 250 g ai/ha) | CASOB phytotoxicity rating ([19]; 63 g ai/ha)

Reference: patent US6355799B1, “Substituted benzene compounds, process for their preparation, and herbicidal and defoliant compositions containing them” (ISK Americas Incorporated, priority 1997, dated 2002)
